The target in assay [1] is T1, FM-P11W^IFS (R276S/M395R within P11W^IFS background) (Pyrococcus horikoshii, UniProt O59010, A364C/C321A/D37H/E368H/K125H/K132H/K223H/K264H/K40H/K55C/M395R/P11W/R276S).
T1 construct: made in house; host or cells: Escherichia coli DH10b
It is filed as binding. The method, then: (§1) For emission scans, protein samples at 1 µM were prepared in 2 mL of 20 mM Hepes/Tris pH 7.4, 300 mM choline chloride and 1 mM DDM. […] Baseline was determined using buffer only and subtracted from the data. […] For real-time fluorescence measurements of ligand binding, protein samples at 1 µM were incubated in 2 mL fluorometer cell containing 20 mM Hepes/Tris pH 7.4, 300 mM choline chloride and 1 mM DDM with various NaCl concentrations at 25°C. Data were normalized by dividing fractional fluorescence change by the maximal change observed upon addition of saturating ligand concentrations at the end of each experiment. After signal equilibration, ligands were added with fast stirring. Excitation and emission wavelengths were 295 and 350 nm, respectively. Here and elsewhere, data were analyzed using SigmaPlot 12.0 (Systat Software, Inc) and GraphPad Prism 7 (GraphPad Software). All kinetic relaxation curves were fitted to single exponentials.
(§2) 68 individual relaxation curves were fitted globally, allowing only the rates of DL-TBOA dissociation to be adjusted (Figure 4—figure supplement 5).

Another assay has as its system GltPh Na3 site. Set-up: method as in Heinzelmann et al., 2011; Heinzelmann et al., 2013. The following applies: estimated in computational studies, ref Heinzelmann et al., 2011, 2013; cited from earlier work.
The target of assay [2] is T2, P11W^IFS (Pyrococcus horikoshii, UniProt O59010, A364C/C321A/D37H/E368H/K125H/K132H/K223H/K264H/K40H/K55C/P11W). It is filed as binding. Conditions: for kon: reaction 1, T + Na = TNa; for koff: fitted.
From the text: The kinetic models in Figure 4, Figure 4—figure supplement 4 and Figure 5—figure supplement 1 were implemented in KinTek program (KinTek, Inc) ([Johnson, 2009]) for global parameter fitting and in Copasi ([Hoops et al., 2006]) for simulations. […] Raw relaxation curves, including 21 dissociation and 58 binding reactions were fitted globally in KinTek (Figure 4—figure supplements 2 and 3).
as §2

Assay [3] deals with P11W^IFS (Hg^2+-crosslinked P11W/K55C/A364C GltPh, inward-facing state) (Pyrococcus horikoshii, UniProt O59010, A364C/C321A/D37H/E368H/K125H/K132H/K223H/K264H/K40H/K55C/P11W). It is filed as binding. Conditions: for slope of kr values versus Na^+ concentration: linear fit constrained through the origin, kr from plateaus of ligand binding rates. How it is done:
as §1
The full Equation 4 requires fitting of four rate constants, kr, k-r, kon and koff ([Vogt et al., 2012]). […] The data for DL-TBOA binding were fitted to Equation 3.

In assay [4] the target is T3, wild type GltPh (Pyrococcus horikoshii, UniProt O59010). Nature of the assay: L-asp transport (uptake and exchange) in proteoliposomes. It is filed as biochemical. Further details: made in house; host or cells: Escherichia coli (DH10b is stated for the mutants). The following applies: 35°C, 200 mM NaCl external. The method, then:
GltPh protein samples were reconstituted into liposomes as previously described ([Boudker et al., 2007]; [Ryan et al., 2009]). In brief, 0.1% L-α-Phosphatidylethanolamine-N-lissamine rhodamine B sulfonyl (Avanti Polar Lipids) was added to with 3:1 (w/w) mixture of E.coli polar lipid extract and egg phosphatidylcholine and dried on rotary evaporator and under vacuum overnight. The mixture was hydrated using 20 mM Hepes/Tris, pH 7.4 and 200 mM KCl buffer at final lipid concentration of 5 mg/ml by 10 freeze/thaw cycles. The suspensions were extruded through 400 nm filter membranes (Whatman) 10 times to form unilamellar liposomes. The rhodamine fluorescence of the liposomes was measured to generate a concentration calibration curve; excitation and emission wavelengths were 560 and 583 nm, respectively. […] Final concentrations of proteoliposomes were determined by rhodamine fluorescence.
For substrate exchange experiments, the internal proteoliposome buffer was replaced with buffer containing 20 mM Hepes/Tris, pH 7.4 and 200 mM NaCl and 100 µM L-asp. […] The washed filter membranes were transferred into scintillation vials, and retained radioactivity was measured using LS6500 scintillation counter (Beckman Coulter). Background uptake was measured in the reaction buffer containing 20 mM Hepes/Tris pH 7.4, 200 mM KCl, 500 nM ^3H-L-asp and 100 nM cold L-asp.

The target of assay [5] is T2, P11W^IFS. Put plainly: Fluorescence-based titration using RH421. It is filed as binding. How it is done:
After addition of appropriate NaCl concentrations and 200 nM RH421 (Sigma-Aldrich), the samples were incubated at 25°C until fluorescence signal plateaued. […] Excitation and emission wavelengths were 532 and 628 nm, respectively.

Assay [6] deals with T3, wild type GltPh. Conditions: 100 mM NaCl; ref Ryan et al., 2009; cited from earlier work.

Values joined by “and” are separate entries in the source; they are usually repeats but may differ in a detail not shown here. Equal entries are not always repeated. Where two headings read alike, the source gives them in different places.

T1 sequence (O59010 1-417 P11W/D37H/K40H/K55C/K125H/K132H/K223H/K264H/R276S/C321A/A364C/E368H/M395R): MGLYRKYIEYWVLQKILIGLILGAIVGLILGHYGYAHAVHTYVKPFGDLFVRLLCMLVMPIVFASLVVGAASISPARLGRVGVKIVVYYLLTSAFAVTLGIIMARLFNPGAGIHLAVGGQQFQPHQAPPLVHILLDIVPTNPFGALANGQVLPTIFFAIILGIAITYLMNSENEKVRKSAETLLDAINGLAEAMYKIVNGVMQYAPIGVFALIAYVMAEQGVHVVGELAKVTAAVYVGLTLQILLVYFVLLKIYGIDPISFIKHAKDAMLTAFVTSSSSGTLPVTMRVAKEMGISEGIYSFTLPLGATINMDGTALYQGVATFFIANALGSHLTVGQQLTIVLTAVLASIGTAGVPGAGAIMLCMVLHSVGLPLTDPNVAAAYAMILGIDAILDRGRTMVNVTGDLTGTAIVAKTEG
T2 sequence (O59010 whole entry P11W/D37H/K40H/K55C/K125H/K132H/K223H/K264H/C321A/A364C/E368H): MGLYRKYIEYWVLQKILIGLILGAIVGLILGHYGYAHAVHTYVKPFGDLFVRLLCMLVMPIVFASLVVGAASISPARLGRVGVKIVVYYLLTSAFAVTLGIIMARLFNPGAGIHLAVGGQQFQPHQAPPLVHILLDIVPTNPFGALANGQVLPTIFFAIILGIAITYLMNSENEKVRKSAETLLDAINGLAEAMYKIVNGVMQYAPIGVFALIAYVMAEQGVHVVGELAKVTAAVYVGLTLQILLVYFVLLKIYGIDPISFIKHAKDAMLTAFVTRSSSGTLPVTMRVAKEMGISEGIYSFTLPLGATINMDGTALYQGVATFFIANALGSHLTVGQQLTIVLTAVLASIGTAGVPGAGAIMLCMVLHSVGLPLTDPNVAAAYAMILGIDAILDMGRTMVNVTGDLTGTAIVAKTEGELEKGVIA
Chain of P11W^IFS (Hg^2+-crosslinked P11W/K55C/A364C GltPh, inward-facing state) (O59010 whole entry P11W/D37H/K40H/K55C/K125H/K132H/K223H/K264H/C321A/A364C/E368H): as above
T3 sequence (O59010 whole entry): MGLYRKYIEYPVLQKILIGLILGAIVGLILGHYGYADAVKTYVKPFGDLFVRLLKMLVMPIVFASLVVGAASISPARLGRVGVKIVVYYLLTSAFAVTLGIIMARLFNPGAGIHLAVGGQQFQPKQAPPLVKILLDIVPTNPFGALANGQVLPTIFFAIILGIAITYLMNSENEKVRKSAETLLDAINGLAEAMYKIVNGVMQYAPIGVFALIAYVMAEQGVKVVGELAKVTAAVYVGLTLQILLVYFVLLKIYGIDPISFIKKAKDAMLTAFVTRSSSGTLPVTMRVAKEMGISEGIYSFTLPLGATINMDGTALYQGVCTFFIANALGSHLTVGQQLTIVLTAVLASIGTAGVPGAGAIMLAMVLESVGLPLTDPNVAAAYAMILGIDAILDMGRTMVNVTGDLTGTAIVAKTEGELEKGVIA

In general, kon refers to a measure of how fast the partners come together. The koff is a measure of how fast the partners let go of each other. `[Na+]` [Na^+, sodium]: the “increase of the rate of binding of the first Na^+ ion relative to P11W^IFS” value in assay [1] (kinetic model adjustment) was determined as 4 fold. The association rate constant (kon) in assay [1] (reaction 1, T + Na = TNa, FM-P11W^IFS/L-asp model) came to 144 M⁻¹ s⁻¹; on P11W^IFS [2] (P11W^IFS/DL-TBOA model, fixed (*)), 36 M⁻¹ s⁻¹; on P11W^IFS [2] (P11W^IFS/L-asp model, fixed during fitting (*)), 36 M⁻¹ s⁻¹. The koff in assay [1] (reaction 1, T + Na = TNa, FM-P11W^IFS/L-asp model, optimized in global fitting (#)) amounted to 39 ± 3 s⁻¹. Also, the “intrinsic affinity of Na3 site” value in the assay on GltPh Na3 site was -16 kcal/mol. Also, the “Na^+ concentration at which fluxes through 'second Na^+ binds first' and 'L-asp binds first' branches are equal” value at P11W^IFS [2] (kinetic model, forward and reverse directions) was ~ 3.6 mM and 3.6 mM. Moreover, the “remaining binding rates for Na^+ ions” value on P11W^IFS [2] (set at an arbitrary high value) is reported as 10^7 M^−1 s^−1. For the same molecule, the “affinity of binding of the first Na^+ ion” value at P11W^IFS [2] (suggested by experimental data) was “no more than −0.5 kcal/mol”. The Kd in assay [3] (Hill coefficient n fixed to 1, L-asp dissociation experiments, read-out: KD,Na of rapidly equilibrating Na^+ ions (fit to Equation 2)) is 40 ± 20 µM; in assay [3] (Hill coefficient n fixed to 2, L-asp dissociation experiments, read-out: KD,Na of rapidly equilibrating Na^+ ions (fit to Equation 2)), 130 ± 20 µM; in assay [3] (Hill coefficient n fixed to 3, L-asp dissociation experiments, read-out: KD,Na of rapidly equilibrating Na^+ ions (fit to Equation 2)), 150 ± 13 µM; in assay [3] (read-out: affinity of the two 'locking' Na^+ ions) it was approximately 100 µM.

A word on the Km: it is the substrate concentration at which the rate is half of its maximum. For the molecule `N[C@@H](CC(=O)O)C(=O)O` [L-asp, aspartate], at wild type GltPh [4], the “rate of concentrative Na^+-driven uptake of radiolabeled L-asp compared with rate of L-asp exchange” value was “significantly higher”. Further, the “slope of log-log plot of L-asp dissociation constants as a function of Na^+ concentration” value at P11W^IFS [5] came to 2.5. For the same molecule, the “kobs of L-asp binding” value in assay [3] (0.5 mM L-asp, 4 mM Na^+, representative experiment, single exponential fit) stood at 0.0712 s⁻¹. Moreover, the “slope of kr values versus Na^+ concentration” value in assay [3] is 36 ± 0.9 M⁻¹ s⁻¹ and 36 M⁻¹ s⁻¹. Moreover, the Km on wild type GltPh [6] is approximately 0.1 µM.

For `N[C@H](C(=O)O)[C@H](OCc1ccccc1)C(=O)O` (racemic) [DL-TBOA, DL-threo-β-benzyloxyaspartic acid, reference compound], on P11W^IFS [2], the “increase in the rate of unbinding relative to L-asp in kinetic model” value is reported as “about 20 fold”. Further, the koff at P11W^IFS [2] (reaction 3, TNa + A = TANa, P11W^IFS/DL-TBOA model) came to 11.5 ± 5 s⁻¹; on P11W^IFS [2] (reaction 4, TNa2 + A = TANa2, P11W^IFS/DL-TBOA model) it was 1.72 ± 0.09 s⁻¹. Moreover, the “kobs of DL-TBOA binding” value in assay [3] (8 mM DL-TBOA, 4 mM Na^+, representative experiment, single exponential fit) came to 0.2106 s⁻¹. The “slope of kr values versus Na^+ concentration” value in assay [3] is 26 ± 1.7 M⁻¹ s⁻¹.
